The results in this text go back to patent publication US20150306056A1, “USE OF A DHA ESTER FOR PROPHYLACTIC AND/OR CURATIVE TREATMENT OF DREPANOCYTOSIS” (PIERRE FABRE MEDICAMENT, priority 2012, published 2015).

Common to all, as to assay type: in vivo
Data set [1] can be described thus: DHA plasma level in dogs given nicotinol DHA via oral route. The text has this: (§1) Effect of nicotinol DHA on the fatty acid composition of plasma and red blood cells in dogs treated via oral route. The objective of this first study was to assay total DHA in the blood (plasma and red blood cells) of dogs given nicotinol DHA via oral route.
(§2) Two groups of 10 dogs were used:
(§3) Group 2: nicotinol DHA at 2 g per day.
(§4) All the animals were given either a placebo or nicotinol DHA at 2 g per day via oral route for 28 days. Blood samples were taken at D1 (control), D7, D14, D21 and D28.
(§5) The total lipids of the plasma (500 μL) and of the red blood cells (≈500 mg, the weighing of red blood cells is more accurate than measuring volume) were extracted with 4 mL of hexane/isopropanol mixture ([…]) in an acid medium (3M HCl, 500 μL) in the presence of margaric acid as internal standard (100 μg). After agitation and centrifugation (2000 g, 15 minutes, 10° C.) the organic phase was separated. A second extraction with 2 mL of the same solvent was performed under the same conditions. The organic phases were washed with 2 mL of saline water ([…]). The solvents were evaporated under a stream of nitrogen at 40° C.
(§6) The total lipids derived from the plasma and red blood cells were then saponified (1 mL of 0.5M NaOH in methanol, 70° C., 30 minutes) then converted to methyl eaters (1 mL, 14% BF3 in methanol, 70° C., 15 minutes). After hydrolysio (4 mL […]) they were extracted with 4 then 2 mL of pentane. The organic phases were washed with 2 mL of saline water (9% NaCl). The solvents were evaporated under a stream of nitrogen at 40° C. The methyl esters were re-dissolved in 200 μL hexane for the plasma and red blood cells. The extracted fatty acid methyl esters were analysed by gas phase chromatography. The chromatograph (Agilent Technologies 6890N) was equipped with a split injector heated to 260° C. (1:10 division ratio), capillary column (length 60 m, diameter 0.25 mm) with BPX70 stationary phase (70% cyanopropylpolyphenylene-siloxane; thickness 0.25 μm) and flame ionization detector heated to 260° C. (hydrogen: 40 mL/min, air: 450 mL/min). The vector gas was helium (constant flow rate 1.5 mL/min). The temperature of the column was initially 150° C. and brought at a temperature gradient of 1.3° C./min up to 220° C. then 40° C./min to reach 260° C. for 5 minutes. The retention times of standard methyl esters allowed identification of the extracted fatty acid methyl esters.
(§7) The DHA was quantitated relative to the internal standard (C17:0) added in known quantity to the sample before extraction of the total lipids. It is expressed in μg/mL for the plasma, in μg/g for the red blood cells. The values are given as a mean f standard deviation (in general n=10). The significant differences are shown by a Student's test with 5% threshold.

The nature of data set [2]: DHA level of red blood cells in dogs given nicotinol DHA via oral route.
From the text: as §1, §2, §3, §4, §5, §6, §7

A short description of data set [3]: DHA level of red blood cells in rats given panthenol DHA via oral force-feeding. Conditions: 300 and 1000 mg/kg per day oral, 7 days (FIG. 1). The procedure: (§8) Incorporation of DHA in the plasma and red blood cells of rats receiving panthenol […] via oral route. The objective of this study was to assay total DHA in the blood (plasma and red blood cells) of rats given panthenol DHA via oral force-feeding for 7 days.
(§9) Three groups of 4 rats (2 male and 2 female) were used:
(§10) Group 1: control group (olive oil)
(§11) Group 2: panthenol DHA at 300 mg/kg per day.
(§12) Group 3: panthenol DHA at 1000 mg/kg per day.
(§13) The total lipids of the plasma (500 μL) and red blood cells were extracted with a hexane/isopropanol mixture (3:2, v/v) in an acid medium (3M HCl, 1 mL) in the presence of margaric acid as internal standard. The total lipids from the plasma and red blood cell were saponified (i mL 0.5M NaOH in methanol, 70° C., 30 minutes) then converted to methyl esters (1 mL, 14% BF) in methanol, 70° C., 15 minutes). The fatty acid methyl esters were extracted with pentane then analysed by gas phase chromatography. The chromatograph (Agilent Technologies 6890N) was equipped with a split injector heated to 250° C. (division ratio 1:10) and a capillary column (length 60 m, diameter 0.25 mm) with BPX70 stationary phase (70% cyanopropylpolyphenylene-siloxane; thickness 0.25 μm). The vector gas was helium. […]
(§14) The DHA was quantitated in relation to the internal standard (C17:0) added in known quantity to the sample before extraction of the total lipids. […]

The nature of data set [4]: DHA plasma level in rats given panthenol DHA via oral force-feeding. Conditions: 300 and 1000 mg/kg per day oral, 7 days (FIG. 1). As to the method:
as §8, §9, §10, §11, §12, §13, §14

Data set [5] can be described thus: DHA concentration in human red blood cells after oral panthenol DHA (clinical trial). Conditions: irrespective of the dose (1, 2, 4 g/day), 28 days. As to the method: Concentration of DHA in human red blood cells after absorption of panthenol DHA.
The objective of this clinical trial was to determine total DHA concentrations in the red blood cells of volunteers given a once daily oral dose of panthenol DHA for 28 days. Three doses of panthenol […] were tested in this trial: 1, 2 and 4 g/day. Twelve persons were included in this trial, 3 were given a placebo (without panthenol DHA) and 9 were given panthenol DHA.
Blood samples were taken before administering panthenol DHA (corresponding to the baseline) and thereafter at days 4, 7, 10 14, 15, 19, 22, 25 and 29 to determine the DHA concentrations in the red blood cells. Two blood samples of 4 mL each were taken in tubes containing EDTA. The tubes were centrifuged at 3000 g for 15 minutes at ambient temperature within 30 minutes after the taking of the sample. […]
The lipids were extracted from the red blood cell samples (≈500 mg) using a hexane/isopropanol mixture (3:2 v/v) in an acid medium in the presence of margaric acid as internal standard (100 μg). […] After extraction with pentane, the extracted fatty acid methyl esters were analysed by gas phase chromatography. […]
The DHA was quantitated relative to the internal standard (C17:0) added in known quantity to the sample before extraction of the total lipids. […]

Setting [6] is: 2 g/D oral, significant at every treatment time vs control group.
[7] abbreviates: group 2, D −1 (start of the experiment, before treatment with 2 g/D oral).

In the case of `CC/C=C\C/C=C\C/C=C\C/C=C\C/C=C\C/C=C\CCC(=O)OCc1cccnc1` [nicotinol DHA], the “DHA plasma level, mean” value in data set [1] (2 g/D oral, D 7) was determined as 22.1 µg/mL; in data set [1] (2 g/D oral, D 14) it was 23.7 µg/mL; in data set [1] (2 g/D oral, D 21), 27.9 µg/mL; in data set [1] (2 g/D oral, D 28), 32.6 µg/mL; in data set [1] (setting [7]), 3.8 µg/mL. For the same compound, the “effect of treatment on plasma DHA” value in data set [1] (setting [6]) is on record as “increase in plasma DHA”. Moreover, the “DHA level of red blood cells, mean” value is 4.7 µg/mL in data set [2] (2 g/D oral, D 7); 7.1 µg/mL in data set [2] (2 g/D oral, D 14); 8.3 µg/mL in data set [2] (2 g/D oral, D 21); 8.7 µg/mL in data set [2] (2 g/D oral, D 28); 1.7 µg/mL in data set [2] (setting [7]). The “effect of treatment on DHA level of red blood cells” value in data set [2] (setting [6]) is reported as “rise in the DHA level of red blood cells”.
In the case of `CC/C=C\C/C=C\C/C=C\C/C=C\C/C=C\C/C=C\CCC(=O)OCCCNC(=O)[C@@H](O)C(C)(C)CO` [panthenol DHA, panthenyl docosahexaenoate], the figures for the “amount of DHA found in the red blood cells” value in data set [3] (female rats) and in data set [3] (male rats) were “only increased with the higher dose” and “dependent on the dose”, respectively. For the same compound, the “amount of DHA found in the plasma” value is given as “only increased with the higher dose” in data set [4] (female rats) and “dependent on the dose” in data set [4] (male rats). For the same compound, the “DHA level in human red blood cells versus placebo” value in data set [5] was “increased compared with the placebo group”.
